Results published in patent US20090076021A1, “THERAPEUTIC COMBINATIONS AND METHODS FOR CARDIOVASCULAR IMPROVEMENT AND TREATING CARDIOVASCULAR DISEASE” (priority 2006, published 2009).

System: Hypothyroid rats
Assay: Cardiac performance (Millar direct catheter system) in PTU-fed hypothyroid rats after 4 days of treatment
Format: in vivo, Male S.D. rats
Method: Male S.D. rats (7 wks old) were rendered hypothyroid by being fed PTU diet (n 48; iodine deficient, 0.15% propylthiouracil) or normal chow (n=8) for 2 weeks. PTU fed rats were then separated into weight-matched groups the day prior to inception of the study, and treated for 4 days with vehicle (0.05 mL/100 g BW i.p.; 20% Cremophor EL; 20% ethanol; 60% H2O) or T3 (3 μg/kg) and scriptaid (1.5, 15 mg/kg) or its vehicle (100% DMSO; 0.04 mL/100 g BW i.p.). Because of differential pharmacodynamics of T3 and scriptaid, each animal received T3 or its vehicle at least 3 hours prior to receiving scriptaid or its vehicle. Following 4 days of treatment, core temperature, systemic hemodynamics, and cardiac performance data were collected under isoflurane anesthesia using the Millar direct catheter system no less two hours following scriptaid administration. At the conclusion of the experiment the animals were sacrificed, and blood and tissues collected for morphological and biochemical analysis. Hypothyroid rats have impaired systolic and diastolic cardiac performance relative to euthyroid control rats, while scriptaid alone exerted no effects on either systolic or diastolic cardiac performance.

[1] = scriptaid (1.5, 15 mg/kg i.p.) coadministered with T3 (3 μg/kg), hypothyroid rats, compared with T3 alone

SMILES | maximal +/−dP/dt [1] | tau [1] | systolic or diastolic cardiac performance (scriptaid alone (1.5, 15 mg/kg i.p.), hypothyroid (PTU diet) rats, isoflurane anesthesia) | maximal positive and negative dP/dt (indices of systolic and diastolic performance) (T3 3 μg/kg, hypothyroid (PTU diet) rats, FIG. 1) | tau (an index of myocardial relaxation) (T3 3 μg/kg, hypothyroid (PTU diet) rats, FIG. 2)
O=C(CCCCCN1C(=O)c2cccc3cccc(c23)C1=O)NO [scriptaid, 6-(1,3-Dioxo-1H,3H-benzo[de]isoquinolin-2-yl)-hexanoic acid hydroxyamide] | significantly enhanced the effects of T3 treatment | significantly enhanced the effects of T3 treatment | no effects |  | 
N[C@@H](Cc1cc(I)c(Oc2ccc(O)c(I)c2)c(I)c1)C(=O)O [T3, triiodothyronine] |  |  |  | increased | improved
